Measured values taken from the supplement of paper PMC10307832.

How the values were obtained:
Assay in all cases: relative viability (nuclei count vs DMSO), 5 days (fraction); higher = more cells survive
[1] = compound: COc1cc2/c(=N/c3ccc(Br)cc3F)nc[nH]c2cc1OCC1CCN(C)CC1 [Vandetanib] + CS(=O)(=O)CCNCc1ccc(-c2ccc3ncnc(Nc4ccc(OCc5cccc(F)c5)c(Cl)c4)c3c2)o1 [Lapatinib] (partner 2 µM)
How it was run: (§1)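 Relative viability divides the nuclei count in treated wells by that in vehicle wells. Lung cancer cell lines were seeded in 1536-well plates, dosed by pin tool the next day, and fixed and stained after 5 days in one step with final 0.05% Triton X-100, 1% formaldehyde and 1 ug/ml Hoechst. Dosing was a single drug or a fixed anchor-drug dose plus five library-drug doses (not always all listed) in √10 steps, and values are medians of duplicate plates imaged at 4×.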

[2] = compound: COc1cc(N2CCC(N3CCN(C)CC3)CC2)ccc1Nc1ncc(Cl)c(Nc2ccccc2S(=O)(=O)C(C)C)n1 [NVP-TAE684] + Nc1ncn([C@H]2C[C@H](O)[C@@H](CO)O2)c(=O)n1 [Decitabine] (partner 2 µM)
How it was run: as §1

[3] = compound: COc1cc(N2CCC(N3CCN(C)CC3)CC2)ccc1Nc1ncc(Cl)c(Nc2ccccc2S(=O)(=O)C(C)C)n1 [NVP-TAE684] + Nc1nc2[nH]cc(CCc3ccc(C(=O)N[C@@H](CCC(=O)O)C(=O)O)cc3)c2c(=O)[nH]1 [Pemetrexed] (partner 0.2 µM)
How it was run: as §1

[4] = compound: COc1cc(N2CCC(N3CCN(C)CC3)CC2)ccc1Nc1ncc(Cl)c(Nc2ccccc2S(=O)(=O)C(C)C)n1 [NVP-TAE684] + COc1cc2c(Oc3ccc(NC(=O)C4(C(=O)Nc5ccc(F)cc5)CC4)cc3F)ccnc2cc1OCCCN1CCOCC1 [Foretinib] (partner 0.25 µM)
How it was run: as §1

[5] = compound: C#Cc1cccc(Nc2ncnc3cc(OC)c(OCCCCCCC(=O)NO)cc23)c1 [CUDC-101] + C[C@@H](Oc1cc(-c2cnn(C3CCNCC3)c2)cnc1N)c1c(Cl)ccc(F)c1Cl [Crizotinib] (partner 1 µM)
How it was run: as §1

Cell Line: NCI-H2126
- relative viability ([1]; first compound 0.02 µM): 0.698
- relative viability ([1]; first compound 0.06325 µM): 0.747
- relative viability ([1]; first compound 0.2 µM): 0.805
- relative viability ([1]; first compound 0.6325 µM): 0.724
- relative viability ([1]; first compound 2 µM): 0.768
- relative viability ([2]; first compound 0.2 µM): 0.56
- relative viability ([2]; first compound 0.6325 µM): 0.603
- relative viability ([2]; first compound 2 µM): 0.459
- relative viability ([3]; first compound 0.2 µM): 0.734
- relative viability ([3]; first compound 0.6325 µM): 0.67
- relative viability ([3]; first compound 2 µM): 0.554
- relative viability ([4]; first compound 0.2 µM): 1.13
- relative viability ([4]; first compound 0.6325 µM): 1.22
- relative viability ([4]; first compound 2 µM): 0.84
- relative viability ([5]; first compound 0.01 µM): 1.07
- relative viability ([5]; first compound 0.03162 µM): 1.08
- relative viability ([5]; first compound 0.1 µM): 1.01
- relative viability ([5]; first compound 0.3162 µM): 1.01
- relative viability ([5]; first compound 1 µM): 0.866

Cell Line: NCI-H650
- relative viability ([1]; first compound 0.02 µM): 1.06
- relative viability ([1]; first compound 0.06325 µM): 1.04
- relative viability ([1]; first compound 0.2 µM): 0.636
- relative viability ([1]; first compound 0.6325 µM): 0.896
- relative viability ([1]; first compound 2 µM): 0.308
- relative viability ([2]; first compound 0.2 µM): 0.306
- relative viability ([2]; first compound 0.6325 µM): 0.329
- relative viability ([2]; first compound 2 µM): 0.276
- relative viability ([3]; first compound 0.2 µM): 0.901
- relative viability ([3]; first compound 0.6325 µM): 0.939
- relative viability ([3]; first compound 2 µM): 0.757
- relative viability ([4]; first compound 0.2 µM): 0.983
- relative viability ([4]; first compound 0.6325 µM): 1
- relative viability ([4]; first compound 2 µM): 0.753
- relative viability ([5]; first compound 0.01 µM): 0.835
- relative viability ([5]; first compound 0.03162 µM): 0.783
- relative viability ([5]; first compound 0.1 µM): 0.771
- relative viability ([5]; first compound 0.3162 µM): 0.532
- relative viability ([5]; first compound 1 µM): 0.454

Cell Line: 201T
- relative viability ([1]; first compound 0.02 µM): 0.968
- relative viability ([1]; first compound 0.06325 µM): 1.03
- relative viability ([1]; first compound 0.2 µM): 1.03
- relative viability ([1]; first compound 0.6325 µM): 0.994
- relative viability ([1]; first compound 2 µM): 1.05
- relative viability ([2]; first compound 0.6325 µM): 0.867
- relative viability ([2]; first compound 2 µM): 0.684
- relative viability ([3]; first compound 0.2 µM): 0.334
- relative viability ([3]; first compound 0.6325 µM): 0.332
- relative viability ([3]; first compound 2 µM): 0.323
- relative viability ([4]; first compound 0.2 µM): 1.12
- relative viability ([4]; first compound 0.6325 µM): 0.96
- relative viability ([4]; first compound 2 µM): 0.403
- relative viability ([5]; first compound 0.01 µM): 1
- relative viability ([5]; first compound 0.03162 µM): 1.02
- relative viability ([5]; first compound 0.1 µM): 0.979
- relative viability ([5]; first compound 0.3162 µM): 1.06
- relative viability ([5]; first compound 1 µM): 0.97

Cell Line: LU99A
- relative viability ([1]; first compound 0.02 µM): 0.973
- relative viability ([1]; first compound 0.06325 µM): 0.869
- relative viability ([1]; first compound 0.2 µM): 1.01
- relative viability ([1]; first compound 0.6325 µM): 0.828
- relative viability ([1]; first compound 2 µM): 1.04
- relative viability ([2]; first compound 0.2 µM): 0.97
- relative viability ([2]; first compound 2 µM): 0.496
- relative viability ([3]; first compound 0.2 µM): 0.192
- relative viability ([3]; first compound 0.6325 µM): 0.147
- relative viability ([3]; first compound 2 µM): 0.194
- relative viability ([4]; first compound 0.2 µM): 0.873
- relative viability ([4]; first compound 0.6325 µM): 0.83
- relative viability ([4]; first compound 2 µM): 0.365
- relative viability ([5]; first compound 0.01 µM): 0.516
- relative viability ([5]; first compound 0.03162 µM): 0.585
- relative viability ([5]; first compound 0.1 µM): 0.458
- relative viability ([5]; first compound 0.3162 µM): 0.45
- relative viability ([5]; first compound 1 µM): 0.256

Cell Line: NCI-H647
- relative viability ([1]; first compound 0.02 µM): 1.02
- relative viability ([1]; first compound 0.06325 µM): 1.09
- relative viability ([1]; first compound 0.2 µM): 1.09
- relative viability ([1]; first compound 0.6325 µM): 1.08
- relative viability ([1]; first compound 2 µM): 0.999
- relative viability ([2]; first compound 0.2 µM): 0.388
- relative viability ([2]; first compound 0.6325 µM): 0.386
- relative viability ([2]; first compound 2 µM): 0.261
- relative viability ([3]; first compound 0.2 µM): 0.18
- relative viability ([3]; first compound 0.6325 µM): 0.148
- relative viability ([3]; first compound 2 µM): 0.106
- relative viability ([4]; first compound 0.2 µM): 1.09
- relative viability ([4]; first compound 0.6325 µM): 1.21
- relative viability ([4]; first compound 2 µM): 1.16
- relative viability ([5]; first compound 0.01 µM): 1.27
- relative viability ([5]; first compound 0.03162 µM): 1.03
- relative viability ([5]; first compound 0.1 µM): 1.09
- relative viability ([5]; first compound 0.3162 µM): 0.909
- relative viability ([5]; first compound 1 µM): 0.533

Cell Line: LC-2-ad
- relative viability ([1]; first compound 0.02 µM): 0.896
- relative viability ([1]; first compound 0.06325 µM): 0.949
- relative viability ([1]; first compound 0.2 µM): 0.506
- relative viability ([1]; first compound 0.6325 µM): 0.783
- relative viability ([1]; first compound 2 µM): 0.711
- relative viability ([2]; first compound 0.2 µM): 0.754
- relative viability ([2]; first compound 0.6325 µM): 0.78
- relative viability ([2]; first compound 2 µM): 0.606
- relative viability ([3]; first compound 0.2 µM): 0.241
- relative viability ([3]; first compound 0.6325 µM): 0.269
- relative viability ([3]; first compound 2 µM): 0.232
- relative viability ([4]; first compound 0.2 µM): 0.936
- relative viability ([4]; first compound 0.6325 µM): 0.864
- relative viability ([4]; first compound 2 µM): 0.403
- relative viability ([5]; first compound 0.01 µM): 0.454
- relative viability ([5]; first compound 0.03162 µM): 0.482
- relative viability ([5]; first compound 0.1 µM): 0.432
- relative viability ([5]; first compound 0.3162 µM): 0.436
- relative viability ([5]; first compound 1 µM): 0.343

Cell Line: LK-2
- relative viability ([1]; first compound 0.02 µM): 0.999
- relative viability ([1]; first compound 0.06325 µM): 0.964
- relative viability ([1]; first compound 0.2 µM): 0.716
- relative viability ([1]; first compound 0.6325 µM): 1.05
- relative viability ([1]; first compound 2 µM): 0.636
- relative viability ([2]; first compound 0.2 µM): 0.24
- relative viability ([2]; first compound 0.6325 µM): 0.205
- relative viability ([2]; first compound 2 µM): 0.146
- relative viability ([3]; first compound 0.2 µM): 0.271
- relative viability ([3]; first compound 0.6325 µM): 0.229
- relative viability ([3]; first compound 2 µM): 0.175
- relative viability ([4]; first compound 0.2 µM): 1.14
- relative viability ([4]; first compound 0.6325 µM): 1.28
- relative viability ([4]; first compound 2 µM): 0.316
- relative viability ([5]; first compound 0.01 µM): 0.249
- relative viability ([5]; first compound 0.03162 µM): 0.229
- relative viability ([5]; first compound 0.1 µM): 0.21
- relative viability ([5]; first compound 0.3162 µM): 0.246
- relative viability ([5]; first compound 1 µM): 0.225

Cell Line: NCI-H520
- relative viability ([1]; first compound 0.02 µM): 0.679
- relative viability ([1]; first compound 0.06325 µM): 0.807
- relative viability ([1]; first compound 0.2 µM): 0.918
- relative viability ([1]; first compound 0.6325 µM): 0.936
- relative viability ([1]; first compound 2 µM): 0.831
- relative viability ([2]; first compound 0.2 µM): 0.508
- relative viability ([2]; first compound 0.6325 µM): 0.45
- relative viability ([2]; first compound 2 µM): 0.267
- relative viability ([3]; first compound 0.2 µM): 0.694
- relative viability ([3]; first compound 0.6325 µM): 0.823
- relative viability ([3]; first compound 2 µM): 0.326
- relative viability ([4]; first compound 0.2 µM): 0.712
- relative viability ([4]; first compound 0.6325 µM): 0.979
- relative viability ([4]; first compound 2 µM): 0.51
- relative viability ([5]; first compound 0.01 µM): 0.743
- relative viability ([5]; first compound 0.1 µM): 0.756
- relative viability ([5]; first compound 0.3162 µM): 0.636
- relative viability ([5]; first compound 1 µM): 0.316

Cell Line: NCI-H1975
- relative viability ([1]; first compound 0.02 µM): 0.846
- relative viability ([1]; first compound 0.06325 µM): 0.831
- relative viability ([1]; first compound 0.2 µM): 0.862
- relative viability ([1]; first compound 0.6325 µM): 0.858
- relative viability ([1]; first compound 2 µM): 0.81
- relative viability ([2]; first compound 0.2 µM): 0.401
- relative viability ([2]; first compound 0.6325 µM): 0.389
- relative viability ([2]; first compound 2 µM): 0.36
- relative viability ([3]; first compound 0.2 µM): 0.297
- relative viability ([3]; first compound 0.6325 µM): 0.283
- relative viability ([3]; first compound 2 µM): 0.236
- relative viability ([4]; first compound 0.2 µM): 1.2
- relative viability ([4]; first compound 0.6325 µM): 0.911
- relative viability ([4]; first compound 2 µM): 0.497
- relative viability ([5]; first compound 0.01 µM): 1.05
- relative viability ([5]; first compound 0.03162 µM): 1.02
- relative viability ([5]; first compound 0.1 µM): 0.964
- relative viability ([5]; first compound 0.3162 µM): 1.1
- relative viability ([5]; first compound 1 µM): 0.872
